Laboratory results taken from US8912181B2 (Taiho Pharmaceutical Co., Ltd., priority 2011, dated 2014).

Tests used:
SK-BR-3 cells = experiment: Determination of cell growth inhibition (crystal violet staining method); assay type: cell-based; settings: Homo sapiens; breast cancer cells SK-BR-3, 72 hours culture with test substance
Protocol: Cell growth was assayed by a crystal violet staining method. SK-BR-3 cells (HTB-30) purchased from American Type Culture Collection were inoculated at a concentration of 5,000 cells/well to a 96-well plate (#353075, BD Biosciences). After culture at 37° C. for 24 hours in a 5% CO2 incubator, each test substance was added thereto, and the cells were further cultured for 72 hours. A 25% glutaraldehyde solution (#17025-25, Nacalai Tesque, Inc.) was added thereto at a concentration of 20 μL/well per 200 μL of the medium, and the plate was incubated at room temperature for 20 minutes to fix the cells. The plate was washed with water and dried. Then, a solution containing 0.05% crystal violet (#038-17792, Wako Pure Chemical Industries, Ltd.) and 20% methanol was added thereto at a concentration of 100 μL/well, and the plate was incubated at room temperature for 20 minutes to stain the cells. The plate was washed with water and dried. A mixed solution of 0.05 M NaH2PO4 and ethanol (mixed in equal amounts) was added thereto at a concentration of 100 μL/well. Absorbance was measured at 540 nm using a microplate reader (MTP-450, Corona Electric Co., Ltd.) and used as an index for the number of cells per well. Percent inhibition (%) of cell growth by each compound of the present invention was determined according to the formula shown below with the absorbance of no drug addition group as a control. […] Percent inhibition (%)=(C−T)/C×100, wherein T: Absorbance of well with test substance addition C: Absorbance of well without test substance addition.

[1] = target: human HSP90 alpha protein (N-terminal, amino acids 2 to 236) (Homo sapiens (Human), UniProt P07900); experiment: Determination of HSP90-binding activity (AlphaScreen competitive assay with biotinylated geldanamycin); settings: inhibition of binding of biotinylated geldanamycin to purified HSP90 N-terminal protein, read-out: HSP-binding activity IC50
Protocol: First, a purified HSP90 solution was prepared as follows: a human HSP90 alpha gene (NCBI Reference Sequence accession no. NM-005348) region corresponding to amino acids 2 to 236 of human HSP90 alpha protein (NCBI Reference Sequence accession no. NP-005339; full length: 732 amino acids) was inserted to pET-19b (Novagen; Merck KGaA) to construct a plasmid pET-HS[…] for expression of the HSP90 N-terminal protein having a His-tag at the N-terminus. E. coli (BL21(DE3), Stratagene Corp.) was transformed with pET-HS[…] and then cultured at 37° C. for 4 hours in the presence of 0.5 mM isopropyl-beta-D-thiogalactopyranoside (Sigma-Aldrich Corp.). The collected E. coli was suspended in a lysis buffer (50 mM Tris-HCl (pH 7.5), 200 mM NaCl) and sonicated. The sonicated cell solution was centrifuged (40,000×g, 20 minutes), and the supernatant was used as a crude extract. This crude extract was fractionated using Ni Sepharose High Performance (GE Healthcare Japan Corp.) chromatography and HiLoad 26/60 Superdex 75 pg (GE Healthcare Japan Corp.). Then, a fraction of HSP90 protein concentrates was prepared in a solution containing 50 mM Tris-HCl (pH 7.5) and 20% glycerol as a purified HSP90 solution. The purified HSP90 solution was divided and stored at -80° C. until use. HSP90-binding activity was determined by an AlphaScreen competitive assay system. […] After reaction at room temperature for 2 hours, biotinylated geldanamycin was added thereto at a concentration of 40 nM/well and further reacted for 1 hour. Detection mix (20 mM HEPES-KOH (pH 7.5), 0.5% BSA, 0.04 mg/mL Nickel Chelate Acceptor beads, 0.04 mg/mL Streptavidin-coated Donor beads) (#6760619C, PerkinElmer, Inc.) was added to each well in an amount equal to the amount of the reaction solution and reacted at room temperature for 1 hour in the dark. Then, fluorescence intensity was measured using Multilabel Plate Reader EnVision (PerkinElmer, Inc.). Percent inhibition (%) of the binding of biotinylated geldanamycin by each compound of the present invention was determined according to the formula shown below with the fluorescence signal of no test substance addition group as a control. […] Percent inhibition (%)=(C-T)/C×100, wherein T: Signal of well with test substance addition C: Signal of well without test substance addition.

| IC50 (SK-BR-3 cells) [µM] | IC50 [1] [µM] | Compound |
| --- | --- | --- |
| 0.05 | 0.14 | CNc1cncc(-c2cccc3c(-c4ccc(C(N)=O)c(NC5CCC(O)CC5)c4)nccc23)c1 (stereo not shown) [Example 34, 2-(4-Hydroxycyclohexylamino)-4-(5-(5-(methylamino)pyridin-3-yl)isoquinolin-1-yl)benzamide] |
| 0.46 | 1.49 | CCCNc1cncc(-c2cccc3c(-c4ccc(C(N)=O)c(NC5CCC(O)CC5)c4)nccc23)c1 (stereo not shown) [Example 35, 2-(4-Hydroxycyclohexylamino)-4-(5-(5-(propylamino)pyridin-3-yl)isoquinolin-1-yl)benzamide] |
| 0.06 | 0.37 | CN(CCO)CNC(=O)c1ccc(-c2nccc3c(-c4cnc5ccccc5c4)cccc23)cc1NC1CCC(O)CC1 (stereo not shown) [Example 37, 2-(4-Hydroxycyclohexylamino)-N-(((2-hydroxyethyl)(methyl)amino)methyl)-4-(5-(quinolin-3-yl)isoquinolin-1-yl)benzamide] |
| 0.04 | 0.98 | CN(C)CNC(=O)c1ccc(-c2nccc3c(-c4cnc5ccccc5c4)cccc23)cc1NC1CCC(O)CC1 (stereo not shown) [Example 38, N-((dimethylamino)methyl)-2-(4-hydroxycyclohexylamino)-4-(5-(quinolin-3-yl)isoquinolin-1-yl)benzamide] |
| 0.01 | 0.13 | NC(=O)c1ccc(-c2nccc3c(-c4cnc5cc[nH]c5c4)cccc23)cc1NC1CCC(O)CC1 (stereo not shown) [Example 39, 4-(5-(1H-Pyrrolo[3,2-b]pyridin-6-yl)isoquinolin-1-yl)-2-(4-hydroxycyclohexylamino)benzamide] |
| 0.54 | 0.15 | Cc1nc2ncc(-c3cccc4c(-c5ccc(C(N)=O)c(NC6CCC(O)CC6)c5)nccc34)cc2[nH]1 (stereo not shown) [Example 40, 2-(4-Hydroxycyclohexylamino)-4-(5-(2-methyl-1H-imidazo[4,5-b]pyridin-6-yl)isoquinolin-1-yl)benzamide] |
| 1.27 | 0.39 | CCc1nc2ncc(-c3cccc4c(-c5ccc(C(N)=O)c(NC6CCC(O)CC6)c5)nccc34)cc2[nH]1 (stereo not shown) [Example 41, 4-(5-(2-Ethyl-1H-imidazo[4,5-b]pyridin-6-yl)isoquinolin-1-yl)-2-(4-hydroxycyclohexylamino)benzamide] |
| 1.1 | 0.69 | NC(=O)c1ccc(-c2nccc3c(-c4cncnc4)cccc23)cc1NC1CCC(O)CC1 (stereo not shown) [Example 43, 2-(4-Hydroxycyclohexylamino)-4-(5-(pyrimidin-5-yl)isoquinolin-1-yl)benzamide] |
| 0.03 | 0.22 | NC(=O)c1ccc(-c2nccc3c(-c4cnc5cc(C=O)ccc5c4)cccc23)cc1NC1CCC(O)CC1 (stereo not shown) [Example 45, 4-(5-(7-Formylquinolin-3-yl)isoquinolin-1-yl)-2-(4-hydroxycyclohexylamino)benzamide] |
| 0.02 | 0.07 | Cn1cc(-c2cn(-c3cccc4c(-c5ccc(C(N)=O)c(NC6CCC(O)CC6)c5)nccc34)cn2)cn1 (stereo not shown) [Example 48, 2-(4-Hydroxycyclohexylamino)-4-(5-(4-(1-methyl-1H-pyrazol-4-yl)-1H-imidazol-1-yl)isoquinolin-1-yl)benzamide] |
| 0.4 | 1.56 | NC(=O)c1ccc(-c2nccc3c(-c4cnc5ccc(CN6CCOCC6)cc5c4)cccc23)cc1NC1CCC(O)CC1 (stereo not shown) [Example 49, 2-(4-Hydroxycyclohexylamino)-4-(5-(6-(morpholinomethyl)quinolin-3-yl)isoquinolin-1-yl)benzamide] |
| 0.04 | 0.12 | CC(C)n1cc(-c2cn(-c3cccc4c(-c5ccc(C(N)=O)c(NC6CCC(O)CC6)c5)nccc34)cn2)cn1 (stereo not shown) [Example 53, 2-(4-Hydroxycyclohexylamino)-4-(5-(4-(1-isopropyl-1H-pyrazol-4-yl)-1H-imidazol-1-yl)isoquinolin-1-yl)benzamide] |
| 0.47 | 0.37 | CNC(=O)c1ccc(-c2cccc3c(-c4ccc(C(N)=O)c(NC5CCC(O)CC5)c4)nccc23)cn1 (stereo not shown) [Example 56, 5-(1-(4-Carbamoyl-3-(4-hydroxycyclohexylamino)phenyl)isoquinolin-5-yl)-N-methylpicolinamide] |
| 1.44 | 0.25 | CNc1cc(-c2nccc3c(-n4cnc(-c5cnn(C)c5)c4)cccc23)ccc1C(N)=O [Example 58, 4-(5-(4-(1-Methyl-1H-pyrazol-4-yl)-1H-imidazol-1-yl)isoquinolin-1-yl)-2-(methylamino)benzamide] |
| 0.09 | 0.1 | Cn1cc(-c2cn(-c3cccc4c(-c5ccc(C(N)=O)c(NCC6CCCO6)c5)nccc34)cn2)cn1 (stereo not shown) [Example 59, 4-(5-(4-(1-Methyl-1H-pyrazol-4-yl)-1H-imidazol-1-yl)isoquinolin-1-yl)-2-((tetrahydrofuran-2-yl)methylamino)benzamide] |
| 0.15 | 0.17 | Cn1cc(-c2cn(-c3cccc4c(-c5ccc(C(N)=O)c(NCCc6ccccn6)c5)nccc34)cn2)cn1 [Example 60, 4-(5-(4-(1-Methyl-1H-pyrazol-4-yl)-1H-imidazol-1-yl)isoquinolin-1-yl)-2-(2-(pyridin-2-yl)ethylamino)benzamide] |
| 0.07 | 0.19 | CC(C)Nc1cc(-c2nccc3c(-n4cnc(-c5cnn(C)c5)c4)cccc23)ccc1C(N)=O [Example 61, 2-(Isopropylamino)-4-(5-(4-(1-methyl-1H-pyrazol-4-yl)-1H-imidazol-1-yl)isoquinolin-1-yl)benzamide] |
| 0.26 | 0.21 | COCCNc1cc(-c2nccc3c(-n4cnc(-c5cnn(C)c5)c4)cccc23)ccc1C(N)=O [Example 62, 2-(2-Methoxyethylamino)-4-(5-(4-(1-methyl-1H-pyrazol-4-yl)-1H-imidazol-1-yl)isoquinolin-1-yl)benzamide] |
| 0.01 | 0.17 | CC(C)Nc1cc(-c2cc(C(F)(F)F)nc3c(-n4cnc(-c5cnn(C)c5)c4)cccc23)ccc1C(N)=O [Example 64] |
| 0.02 | 0.15 | CCNc1cc(-c2nc(C)cc3c(-n4cnc(-c5cnn(C)c5)c4)cccc23)ccc1C(N)=O [Example 66, 2-(Ethylamino)-4-(3-methyl-5-(4-(1-methyl-1H-pyrazol-4-yl)-1H-imidazol-1-yl)isoquinolin-1-yl)benzamide] |
| 0.02 | 0.21 | Cc1cc2c(-n3cnc(-c4cnn(C)c4)c3)cccc2c(-c2ccc(C(N)=O)c(NC(C)C)c2)n1 [Example 67, 2-(Isopropylamino)-4-(3-methyl-5-(4-(1-methyl-1H-pyrazol-4-yl)-1H-imidazol-1-yl)isoquinolin-1-yl)benzamide] |
| 0.01 | 0.19 | Cc1cc2c(-n3cnc(-c4cnn(C)c4)c3)cccc2c(-c2ccc(C(N)=O)c(NCC3CC3)c2)n1 [Example 68, 2-(Cyclopropylmethylamino)-4-(3-methyl-5-(4-(1-methyl-1H-pyrazol-4-yl)-1H-imidazol-1-yl)isoquinolin-1-yl)benzamide] |
| 0.02 | 0.15 | Cn1cc(-c2cn(-c3cccc4c(-c5ccc(C(N)=O)c(N)c5)cc(C(F)(F)F)nc34)cn2)cn1 [Example 69, 2-Amino-4-(8-(4-(1-methyl-1H-pyrazol-4-yl)-1H-imidazol-1-yl)-2-(trifluoromethyl)quinolin-4-yl)benzamide] |
